{
  "source": "a melting point compilation (Tetko et al.; mined from patent text by program, amines drawn as free bases though some values may be those of a salt)",
  "data": [
    {"units": {"melting point": "°C"}, "values": [
      {"smiles": "COC(=O)C(C)(C)OCC#Cc1cc(C(F)(F)F)ccc1NS(=O)(=O)c1ccc2c(c1)OCCN2C", "melting point": "98 to 100"},
      {"smiles": "COc1cccc2c1Sc1ccc(C(C)C(=O)O)cc1C(=O)C2", "note": "(configuration not stated)", "melting point": "176 to 178"},
      {"smiles": "COc1ccc(S(=O)(=O)Oc2ccc3[nH]cc(C4CCN(C)CC4)c3c2)cc1", "melting point": "186 to 187"},
      {"smiles": "CC(C(=O)Nc1ccc(C(=O)c2cccs2)cc1)c1ccccc1", "note": "(configuration not stated)", "melting point": 140},
      {"smiles": "OCC1OC(n2cnc3c(SCc4ccccc4)cc(Cl)nc32)C(O)C1O", "note": "(configuration not stated)", "melting point": "154 to 156"},
      {"smiles": "CS(=O)(=O)OCC(O)(CC(Cl)(Cl)Cl)c1ccccc1", "note": "(configuration not stated)", "melting point": "128 to 130"},
      {"smiles": "CC(C)(C)C(F)(F)c1ccc(C[C@@H](C(=O)O)[C@@H](O)c2cccc(Cl)c2)cc1", "note": "(racemic)", "melting point": "141 to 142"},
      {"smiles": "CCc1n[nH]c(=O)c2ccc(OC)cc12", "melting point": "230 to 235"},
      {"smiles": "CC(C)(C)OC(=O)NCCCCCCC(=O)Nc1ccc(-n2nc(C(F)(F)F)cc2C(F)(F)F)cc1", "melting point": "86 to 88"},
      {"smiles": "O=CNC1=NN(c2ccc(F)cc2)C(c2ccccc2)C1", "note": "(configuration not stated)", "melting point": "158 to 160"},
      {"smiles": "Cc1cncn1CC(=O)CCc1ccc(Cl)cc1", "melting point": "227 to 228"},
      {"smiles": "C=CCNC(=O)C1=C(C(=O)Nc2ccc(Br)cc2F)CCCC1", "melting point": "167 to 169"},
      {"smiles": "CCc1nc2c(N)nc3cc(-c4cncc(CO)c4)ccc3c2n1CC(C)(C)O", "melting point": "> 250"},
      {"smiles": "OC1CCN(Cc2ccc(Br)cn2)CC1", "melting point": "52 to 54"},
      {"smiles": "CC(=O)c1ccc(C(=O)NCCOc2ccc3ccccc3c2)cc1", "melting point": "131 to 132"},
      {"smiles": "O=C(O)C1CCc2c(c3ccccc3n2C(=O)c2ccc(F)cc2)C1", "note": "(configuration not stated)", "melting point": "180 to 182"},
      {"smiles": "CCC(CC)c1ccc(Cl)c2nc3n(c12)CCCCN3c1ccc(C(=O)NC)cc1C", "melting point": "127 to 128"},
      {"smiles": "CN(C)c1nc(N(C)C)nc(N(C)Cc2ccc(O)cc2)n1", "melting point": "163 to 164"},
      {"smiles": "N#CC(Cc1ccccn1)(C(N)=O)c1ccc([N+](=O)[O-])cc1", "note": "(configuration not stated)", "melting point": "79 to 81"},
      {"smiles": "O=C(c1ccc(Cl)cc1)c1cc(-c2ccccc2)c(N2CCOCC2)s1", "melting point": "187 to 188"},
      {"smiles": "CSc1cnc2ccsc2c1O", "melting point": "210 to 212"},
      {"smiles": "COc1cc2cc3c(=O)c(C#N)c[nH]c3cc2cc1O", "melting point": "> 300"},
      {"smiles": "CCOC(=O)CCCOc1cccc2cc(/C(C)=C/C(=O)N3CCOCC3)oc12", "melting point": "90 to 94.8"},
      {"smiles": "O=C(O)/C=C/n1cnc2ccc(C3CC3)cc2c1=O", "melting point": "291 to 293"},
      {"smiles": "O=C1NC(=O)C2(N1)C(=O)N(Cc1ccc(Cl)c(Cl)c1)c1ccc([N+](=O)[O-])cc12", "note": "(configuration not stated)", "melting point": "245 to 246"},
      {"smiles": "O=C1CN=C(c2ccccc2)c2cc(C(c3ccc(Cl)cc3)n3ccnc3)ccc2N1", "note": "(configuration not stated)", "melting point": 144},
      {"smiles": "O=C(Nc1ccc(Cl)cc1)c1ccc([N+](=O)[O-])cc1", "melting point": "233 to 235"},
      {"smiles": "COc1ccc(-c2ccccc2-c2ccc(S(N)(=O)=O)cc2)cc1Cl", "melting point": 180},
      {"smiles": "Cc1cc(=O)oc2nn(C(C)C)c(C)c12", "melting point": "164 to 166"},
      {"smiles": "CC(Oc1ncn(-c2cccc(Br)c2)n1)C(N)=O", "note": "(configuration not stated)", "melting point": "141 to 144"},
      {"smiles": "O=C(O)CC1C2=C(CCCC2)C(=O)N1c1ccc(Cl)cc1", "note": "(configuration not stated)", "melting point": "177 to 178"},
      {"smiles": "Cc1cc(C(=O)N2Cc3cccn3Cc3ccccc32)ccc1C1=CC(C)(C)CC(C)(C)C1", "melting point": "118 to 120"},
      {"smiles": "CC(C)c1cccc(C(C)C)c1NC(=O)CS(=O)(=O)Nc1c(C(C)C)cccc1C(C)C", "melting point": "202 to 205"},
      {"smiles": "CN1CC(C(=O)COC(=O)C(C)(C)C)CC2c3cccc4[nH]cc(c34)CC21", "note": "(configuration not stated)", "melting point": "155 to 156"},
      {"smiles": "COc1cc2c(cc1OS(=O)(=O)C(F)(F)F)[nH]c1cc(-c3ccccc3Cl)c3c(c12)C(=O)NC3=O", "melting point": "248 to 252"},
      {"smiles": "CCCCCCCCCCCCCCCCNC(=O)CCCO", "melting point": "89.5 to 90"},
      {"smiles": "O=S(=O)(Nc1nccs1)c1ccc(Nc2nc(OCC3CCCCC3)c3nc[nH]c3n2)cc1", "melting point": "152 to 154"},
      {"smiles": "NS(=O)(=O)c1ccc(-c2[nH]c3ccc(Br)cc3c2-c2ccccc2)cc1", "melting point": "310 to 312"},
      {"smiles": "CCCc1c(OCCCCCCc2ccc(C(=O)CCCC(=O)O)cc2CCC(=O)O)ccc2c1OCCC2=O", "melting point": "136 to 139"},
      {"smiles": "CCC(=O)N(C(=O)CC)c1nnc2c3c(c(N4CCCCC4)nn12)CCCC3", "melting point": "128 to 129"},
      {"smiles": "COCCOc1ccc(CCCOC(=O)NCC2CC2)c(Oc2ncc(C(F)(F)F)cc2Cl)c1", "melting point": "87.8 to 87.9"},
      {"smiles": "COCCNC(=O)c1cccc(-c2cccc3cc(Cc4cccc(Cl)c4)sc23)c1", "melting point": "120 to 134"},
      {"smiles": "Cc1cc(C)c2c(c1)C=C(/C=C/C=C/C=C/C(=O)O)CO2", "melting point": "208 to 210"},
      {"smiles": "Cn1cc(-c2cncc(OC3SCC(O)C(O)C3O)c2)c(C(F)(F)F)n1", "note": "(configuration not stated)", "melting point": 210},
      {"smiles": "CCCCCCCCCCCCCCCCOC(=O)Cl", "melting point": "> 230"},
      {"smiles": "CCc1c2c(nc3cc(F)c(F)cc13)-c1cc3c(c(=O)n1C2)COC(=O)CC3(O)CC", "note": "(configuration not stated)", "melting point": "> 275"},
      {"smiles": "CCNC(=O)Nc1ccc(-c2sc3c(c2CN(C)CCOC)c(=O)n(-c2ccc(N)cc2)c(=O)n3Cc2c(F)cccc2F)cc1", "melting point": "205 to 207"},
      {"smiles": "Nc1cc(SCc2ccccc2)ccc1[N+](=O)[O-]", "melting point": "113 to 115"},
      {"smiles": "N#Cc1cccc(OS(N)(=O)=O)c1", "melting point": "101 to 104"},
      {"smiles": "O=C1Nc2cccc(F)c2C(=O)N2CC=C[C@@H]12", "melting point": "238 to 240"},
      {"smiles": "CC(=O)OC1CC(CO)OC1n1ccc(=O)[nH]c1=O", "note": "(configuration not stated)", "melting point": "148 to 149"},
      {"smiles": "CCCCC(CC)C(=O)Nc1ccc2ccn(Cc3ccc(C(=O)NS(=O)c4ccccc4)cc3OC)c2c1", "note": "(configuration not stated)", "melting point": "122 to 126"},
      {"smiles": "CCOC(=O)C1=C(C)N2CCNC2=C(C(=O)OCC)C1c1ccco1", "note": "(configuration not stated)", "melting point": 164},
      {"smiles": "COc1cc(C(C)C)c(Oc2cnc(N[C@H](C)CO)nc2N)cc1Cl", "melting point": "111 to 117"},
      {"smiles": "Clc1ccc2c(c1)oc1cc(OCCCBr)ccc12", "melting point": "83 to 85"},
      {"smiles": "Cc1ccnc(C(=O)c2[nH]c3cc(Cl)ccc3c2NC(=O)C(C)(C)O)c1", "melting point": "217 to 219"},
      {"smiles": "O=C1c2ccccc2SCC1(CO)CO", "melting point": "136 to 139"},
      {"smiles": "CC(C)(C)c1cc(OCc2ccc(-c3nnn[nH]3)cc2)cc(C(C)(C)C)c1O", "melting point": "235 to 237"},
      {"smiles": "FC(F)(F)c1ccc(C=Cc2nc(CCl)cs2)cc1", "melting point": "93 to 95"},
      {"smiles": "O=C1CC(c2ccccc2)=Nc2ccccc2N1Cc1ccccc1", "melting point": "122 to 123"},
      {"smiles": "c1cc(OCc2ccc3ccccc3n2)cc(C2SCCCS2)c1", "melting point": "92 to 93"},
      {"smiles": "Clc1ccc(C2(Cn3cncn3)OC2c2ccc(Cl)cc2Cl)cc1", "note": "(configuration not stated)", "melting point": 119},
      {"smiles": "O=C(CI)CCc1ccccc1", "melting point": "44 to 45"},
      {"smiles": "CC(=O)c1ccc(Oc2ccc(Cl)c3ccccc23)cc1", "melting point": "95 to 99"},
      {"smiles": "Cc1cc(Cl)ccc1-n1nc(O)c2c(=O)c3ccc(Cl)cc3[nH]c2c1=O", "melting point": "336 to 339"},
      {"smiles": "COc1ccc2nc3n(c(=O)c2c1OC)CS(=O)(=O)N3", "melting point": "> 300"},
      {"smiles": "CCCC(=O)c1cnc2c(OC)cccc2c1Nc1ccc(OC(C)=O)cc1C", "melting point": "167 to 169"},
      {"smiles": "CN1CCC(Cc2ccc(Cl)nc2)C1=C[N+](=O)[O-]", "note": "(configuration not stated)", "melting point": "141 to 142"},
      {"smiles": "COC(=O)C1CC2=C(CO1)C(=O)c1cc3ccccc3c(OC(C)=O)c1C2=O", "note": "(configuration not stated)", "melting point": "196 to 198"},
      {"smiles": "CCOc1cc(C(=O)O)cc(S(N)(=O)=O)c1-c1ccccc1", "melting point": "149 to 150"},
      {"smiles": "COc1cc(OC)nc(NC#N)n1", "melting point": 202},
      {"smiles": "COC(=O)c1c(Cl)cc(Cl)cc1NC(=O)CSc1ccc(NS(=O)(=O)c2ccc(Cl)cc2)cc1", "melting point": "120 to 123"}
    ]}
  ]
}
